Key:
[1] = tested on: methicillin resistant Staphylococcus aureus (MRSA; ATCC # 43300); experiment: Whole cell anti-MRSA growth inhibition screen (OD590) of Un-Met and Pre-Met library plates; format: cell-based
Method: Next, a copy of the library in its un-metabolized form and a copy of the library in its pre-metabolized form were created. The buffer used for library metabolism was (4×=4 times the concentration of each component in the final solution): 4× KPMEN Buffer: 200 mM KH2PO4; 4 mM K2EDTA; 20 mM glucose-6-phosphate, disodium salt (G6P); 4 mM NADPH, tetrasodium salt; pH adjusted to 7.4 with 1 M KOH. To each well in 1 set of the Reconstituted Copy Plates was added 45 μL 1.1× KEPNM Buffer to give 1 set of unmetabolized (“Un-Met”) Library Plates. […] Both sets of plates were incubated at room temperature for 24 hours with gentle rocking to provide 1 set of Un-Met Library Plates and 1 set of Pre-Met Library Plates. […]
Antibacterial activity screening was performed using methicillin resistant Staphylococcus aureus (MRSA; ATCC # 43300). […] The optical density of each well was then read at 590 nm (0D590) using a TECAN SpectraFluor Plus microtiter plate reader (Artisan Technology Group, Champaign, Ill.). These plates were also read prior to addition of bacteria to identify wells with compounds with a high OD590, so that these well could be examined manually for turbidity post bacterial growth, since a high prior OD590 would interfere with post bacterial growth OD590 measurement. […]

[2] = un-metabolized parent; only active after metabolic conversion into sulfanilamide; cited from earlier work

| Compound | anti-MRSA activity in the Pre-Met plates ([1]; Pre-Met plates (human liver microsomes), cutoff OD590 0.18, 24 hours 35° C.) | anti-MRSA activity in the Un-Met plates ([1]; Un-Met plates, cutoff OD590 0.15, 24 hours 35° C.) | antibacterial activity in vitro [2] |
| --- | --- | --- | --- |
| COc1ccc2c(c1)[C@]13CCCC[C@@H]1[C@H](C2)N(C)CC3 [dextromethorphan] | not in the Pre-Met plates | had anti-MRSA activity | – |
| Nc1ccc(/N=N/c2ccc(S(N)(=O)=O)cc2)c(N)c1 [protosil, prontosil] | – | – | inactive in vitro |

Reference: patent publication US20190127775A1 (priority 2016, published 2019)
